Patent US7005539B2, “Ferulic acid dimers and their pharmaceutically acceptable salts, their preparation and use thereof for treating dementia” (Korea Institute of Science and Technology, priority 2001, dated 2006)

How the values were obtained:
Sprague-Dawley rats = assay: single-dose oral toxicity test in rats; format: in vivo, rat; conditions: for LD50: oral, one time, in corn oil, observed 7 days
Description: Twenty female and twenty male Sprague-Dawley rats aged 4 weeks were divided into four groups including 5 female and 5 male rats, after being raised in a vivarium of temperature 22±3° C., relative humidity 50±10%, illumination 150–300 Lux for 1 week.
The ferulic acid dimers prepared in Example 1 was dissolved in corn oil, and the rats of 4 groups were orally administered with the solutions at a dose of 300, 1,000, 3,000 and 10,000 mg/kg one time. For 7 days after administration, changes of general symptoms and occurrence of death were observed. In addition, the rats were killed on day 7 after administration, dissected, and internal organs were examined with unaided eye. From the extract administration day, daily weight changes were measured and thus the weight decrease of animals attributed to ferulic acid dimers was observed.

[1] = system: mice administered with beta-amyloid; assay: passive avoidance test in mice given beta-amyloid into the cerebral ventricle; format: in vivo, mouse; conditions: group C (dimer and beta-amyloid) compared with group B (beta-amyloid (1–42) only); 24 h after training; maximum 300 seconds; FIG. 1
Description: Four groups of 10 mice aged 4–5 weeks, weighing 20–25 g, were administered with samples dissolved in 1% DMSO and 1% CMC using Sonde once per 1 day(samples: A-reverse phase betaamyloid, B-betaamyloid, C-ferulic acid dimer of example 1 and betaamyloid, D-ferulic acid and betaamyloid). After injection of […] sample to the celebral ventricle on each of 3 consecutive days, passive avoidance test on days 1 and 2, and Y-maze test on days 3 and 4 following the last injection were conducted. All data attained by the average mean of 10 mice each group.
Injection into the cerebral ventricle was performed according to the method described in Laursen & Belknap, J. Pharmacol. Methods. 1986, 16, 355. […]
In order to examine the learning and memory-retention ability of a mouse, a passive avoidance test was carried out in accordance with the method described in Song et al., J. Neurochem., 1998, 71, 875. […] Twenty-four hours after the training, the mouse was put in the light room again and the time it took to enter the dark room was measured as a passive avoidance time. The maximum restriction time was set at 300 seconds, i. e., in cases where the mouse took more than 300 seconds to enter the dark room, the passive avoidance time was determined to be 300 seconds.

cynuclein = assay: T7 phage display selection of human brain cDNA library proteins on immobilized ferulic acid (chemical genomics); format: binding; conditions: screening repeated 3–4 times; identified by sequencing and BLAST
Description: (§1) In order to study a functional mechanism of ferulic acid dimers, the present inventors conducted an experiment to screen from protein libraries proteins conjugatable with ferulic acid by use the method of chemical genomics. To this end, ferulic acid was immobilized onto a solid substrate and treated with T7 phages having proteins translated from a human brain and cDNA library on their surface to select the proteins bound to the immobilized ferulic acid. For selection of the proteins with the best affinity for ferulic acid, the screening procedure was repeated 3–4 times. Base sequencing of the cDNA selected allowed the amino acid sequences of the corresponding proteins to be inferred. […] Of the proteins thus identified, cynuclein and plasophylin attracted particular attention. These two proteins, known to be directly or indirectly associated with formation of intercelluar or intracelluar plaque, were therefore found to be inhibited from forming plaques by ferulic acid.

plasophylin = assay: as above; format: binding; conditions: screening repeated 3–4 times; identified by sequencing and BLAST
Description: as §1

mouse = conditions: separated ferulic acid monomer administered to mouse; cited from earlier work

Compound	LD50 (Sprague-Dawley rats; females)	body weight (Sprague-Dawley rats; groups administered with 1,000 mg/kg or less)	LD50 (Sprague-Dawley rats; males)	pathological changes seen with naked eye on dissection (Sprague-Dawley rats; surviving animals, groups administered 1,000 mg/kg or less, day 7)	step-through latency [1]	protein selected as bound to immobilized ferulic acid (cynuclein)	protein selected as bound to immobilized ferulic acid (plasophylin)	memory-retention ability of mouse (mouse)
O=C(O)C=Cc1ccc(O)c(OCCOc2cc(C=CC(=O)O)ccc2O)c1 [Example 1, 1,2-[2-hydroxy-5-(2-carboxyvinyl)]phenoxyethane]	2,804 mg/kg	not decreased	3,722 mg/kg	No pathological changes	significantly higher			
COc1cc(/C=C/C(=O)O)ccc1O [ferulic acid, 4-hydroxy-3-methoxy cinnamic acid]						specifically bound	specifically bound	considerably increased
